{"source": "paper PMC6162201", "about": "“Towards a comprehensive understanding of the structural dynamics of a bacterial diterpene synthase during catalysis” (Nature Communications, 2018)", "target": "T1, CotB2 (CotB2^wt) (Streptomyces melanosporofaciens, UniProt C9K1X5)", "T1 construct": "C-terminal His6 tag, pET-24a, expressed in E. coli Rosetta2 (DE3)", "T1 sequence (C9K1X5 1-307)": "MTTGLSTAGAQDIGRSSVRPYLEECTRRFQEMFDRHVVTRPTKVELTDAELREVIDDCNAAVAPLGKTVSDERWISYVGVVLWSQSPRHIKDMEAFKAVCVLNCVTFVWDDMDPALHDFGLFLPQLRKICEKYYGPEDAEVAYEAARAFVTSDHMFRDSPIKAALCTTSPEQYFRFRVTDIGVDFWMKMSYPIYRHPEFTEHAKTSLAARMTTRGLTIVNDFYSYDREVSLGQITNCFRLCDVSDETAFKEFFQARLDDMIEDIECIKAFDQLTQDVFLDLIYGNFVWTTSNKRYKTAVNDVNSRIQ", "assay_type": "binding", "conditions": "Mg2+ (three ions), pH 8.5; active site, diphosphate mimic, closed state"}
{"smiles": "NCCCC(O)(P(=O)(O)O)P(=O)(O)O", "note": "[AHD, (4-amino-1-hydroxy-1-phosphonobutyl)phosphonate]", "values": [{"measurement": "X-ray crystal structure, co-crystallisation", "value": "we crystallised CotB2 with (4-amino-1-hydroxy-1-phosphonobutyl)phosphonate (alendronate (AHD)"}]}
